The values below are quoted from earlier work in PMC10006169, “A phase I trial of LXS196, a protein kinase C (PKC) inhibitor, for metastatic uveal melanoma” (British Journal of Cancer, 2023).

The test system of data set [1] is UM cell lines containing mutant GNAQ or GNA11. The conditions noted are these: cited from earlier work.
A further data set deals with 92.1 human UM xenograft. More on the design: method as in PMID 27507190. As to conditions: doses below MTD; cited from earlier work.
In the next data set the test system is patients with MUM. Set-up: method as in PMID 32029634. The conditions noted are these: cited from earlier work.
The subject of data set [2] is HLA-A*02:01-positive patients with first-line MUM. More on the design: method as in PMID 34551229. The conditions noted are these: cited from earlier work.

Turning to `CN1CCN(c2nc(C3=C(c4c[nH]c5ccccc45)C(=O)NC3=O)c3ccccc3n2)CC1` [AEB071, 3-(1H-Indol-3-yl)-4-[2-(4-methylpiperazin-1-yl)quinazolin-4-yl]pyrrole-2,5-dione], in data set [1], the “Sensitivity of UM cell lines carrying Gα subunit mutations” value is recorded as “selective sensitivity”. The “Tumour effect as single agent” value in the data set on 92.1 human UM xenograft is given as “stasis”. In addition, the “Estimated median PFS” value with patients with MUM (95% CI: 2.5–3.6) is listed as 3.5 months. The ORR in the data set on patients with MUM (across all doses) is 3%. In the data set on patients with MUM, the Dose-limiting toxicities entry is reported as “increased frequency of dose-limiting gastrointestinal (GI) toxicities associated with increasing dose”, the “Median duration of SD” value is 3.75 months and the “Stable disease (SD) as best response” value was 50%.

Take “tebentafusp: bispecific fusion protein (Immunocore) designed to redirect T cells to gp100-positive cells”: the “Hazard ratio (OS vs Investigator's choice)” value in data set [2] (95% CI: 0.37–0.71) is listed as 0.51. Moreover, the “1-year OS rate” value in data set [2] (control group 59%) is listed as 73%.
